Like-named read-outs stand apart in the source and are kept apart here.

This note sets out measurements from patent US9468624B2, “Small molecule antagonists of bacterial quorum-sensing receptors” (priority 2008, dated 2016).

Assay [1] concerns CviR-dependent violacein production. Description: Violacein production in wild type C. violaceum, dose-response. The format is cell-based. The settings on record: Chromobacterium violaceum, read-out: IC50 for inhibition of violacein production. The protocol: (§1) E. coli strains were grown overnight in LB medium with antibiotics at 37° C. and sub-cultured into fresh medium at a 1:100 dilution. Various AHL and antagonists were added at constant concentrations or titrated as stated. The gfp was measured on an Envision plate reader after 5 hours of growth at 37° C. C. violaceum strains were grown aerobically in 1 mL Nutrient Broth plus 1 mM tryptophan at 30° C. […] Cells were collected via centrifugation at 13000 rpm for 15 minutes. Pellets were resuspended in 1 mL of methanol and incubated at 42° C. for 1 hour. Samples were again collected via centrifugation at 13000 rpm for 5 minutes and analyzed for violacein by measuring optical density at 568 nm on a Beckman Coulter DU-800 spectrophotometer. For the dose-response analyses, all assays were performed in triplicate.
To determine if 4606-4237 inhibits violacein production specifically by interfering with CviR, 4606-4237 was tested for antagonism of CviR in the recombinant E. coli vioA-gfp assay. For these experiments, C6-HSL was held constant at 500 nM, while 4606-4237 was titrated from 1.3 nM to 100 μM (FIG. 3D). This concentration of native C6-HSL signal induces maximal gfp production in this heterologous assay system. Importantly, no C. violaceum components other than CviR are present in the recombinant E. coli assay strain. Thus, any inhibition occurring would be due to a specific interaction between the antagonist molecule 4606-4237 and CviR rather than an interaction of 4606-4237 with some unknown component required for violacein production in C. violaceum. […] Thus, 4606-4237 functions by disabling CviR-mediated activation of gene expression in both the C. violaceum in vivo violacein assay and the recombinant E. coli vioA-gfp assay.

Assay [2] has as its target T1, CviR (Chromobacterium violaceum, UniProt D3W065). Description: cell-based. The format is cell-based. Set-up: made in house; host or cells: E. coli BL21(DE3) pLysS, plasmid pET23b. The protocol:
The vioA-gfp promoter fusion was constructed by amplifying the vioA promoter and cloning this region upstream of gfp in pEVS141 at the SphI and SalI sites. Cells containing the vioA-gfp construct were electroporated with the pET23 carrying cviR and selected on LB medium supplemented with 75 μg/mL ampicillin and 50 μg/mL kanamycin. The E. coli strain containing cviR and the vio:gfp reporter is named ELS1257.
as §1
However, binding of the longer acyl-tail length AHL molecules disrupts the transcriptional activation ability of CviR.
To determine if 4606-4237 inhibits violacein production specifically by interfering with CviR, 4606-4237 was tested for antagonism of CviR in the recombinant E. coli vioA-gfp assay. For these experiments, C6-HSL was held constant at 500 nM, while 4606-4237 was titrated from 1.3 nM to 100 μM (FIG. 3D). […] Importantly, no C. violaceum components other than CviR are present in the recombinant E. coli assay strain. Thus, any inhibition occurring would be due to a specific interaction between the antagonist molecule 4606-4237 and CviR rather than an interaction of 4606-4237 with some unknown component required for violacein production in C. violaceum.

Assay [3] has as its target T1, CviR. In kind it is binding. On the set-up: made in house; host or cells: E. coli BL21(DE3) pLysS, plasmid pET23b. The settings on record: for DNA binding of ligand-loaded CviR to vioA promoter: CviR 100-500 nM. The protocol:
CviR Overexpression and Purification. CviR was overexpressed in BL21(DE3) pLysS by growing an overnight culture in LB supplemented with 100 μg/mL ampicillin and 10 μg/mL chloramphenicol. The culture was diluted 1:50 into fresh LB supplemented with 100 μg/mL ampicillin and 10 μg/mL chloramphenicol and grown shaking at 37° C. to an OD600 of 0.4. Various AHL or antagonist molecules were added to at 50 μM and incubated an additional 30 minutes at 30° C., after which expression was induced by the addition of 100 μM IPTG (isopropyl-β-D-thiogalactopyranoside) for 4 hours at 30° C. Cells were harvested by centrifugation and lysed in 20 mM imidazole pH 8.0, 100 mM NaCl, 0.5 mM EDTA and 5% glycerol via a Micro-fluidizer processor (MicroFluidics). Protein was purified via ion-exchange using a Hitrap Heparin HP column (GE Healthcare). Protein was eluted with a 100 mM to 1 M NaCl gradient. Fractions containing CviR were pooled and diluted in lysis buffer devoid of NaCl, and then further purified by cation exchange chromatography using a Hitrap SP HP column (GE Healthcare). CviR was eluted with a 100 mM to 1 M NaCl gradient.
DNA probes for gel mobility shift analyses were generated by standard polymerase chain reaction using primers with a 5′ 6-FAM (fluorescein) tag (Integrated DNA Technologies). The target probe contained about 100 nucleotides of the vioA promoter. The control probe contained 300 bases of vioB intergenic DNA. 37 ng of each probe was incubated for 20 minutes at room temperature with the indicated amounts of CviR (0, 0.1, 0.2, 0.3, 0.4 and 0.5 μM) and 1 μg/μL poly-dIdC in 1× Gel shift buffer (40 mM Tris HCl pH 8.0, 100 mM KCL, 2 mM EDTA, 2 mM DTT, 10% glycerol, 200 μg/mL BSA). Gel mobility shifts were performed on 6% TGE-polyacrylamide gels and visualized using a Storm 860 Imaging System (Molecular Dynamics).
To further investigate the mechanism underlying antagonism of the CviR receptor, an examination was undertaken of whether the soluble CviR antagonist complexes were incapable of binding DNA, and thus unable to activate transcription. […] The CviR protein was also purified in complex with each of the synthetic antagonist molecules, 4606-4237, CTL, and CL. Performance of DNA gel mobility shift analyses enabled assessment of the binding of each of these purified, loaded protein complexes to the vioA promoter.
The reciprocal experiment tested whether C6-HSL could replace CL bound to CviR.

T1 sequence (D3W065 1-265): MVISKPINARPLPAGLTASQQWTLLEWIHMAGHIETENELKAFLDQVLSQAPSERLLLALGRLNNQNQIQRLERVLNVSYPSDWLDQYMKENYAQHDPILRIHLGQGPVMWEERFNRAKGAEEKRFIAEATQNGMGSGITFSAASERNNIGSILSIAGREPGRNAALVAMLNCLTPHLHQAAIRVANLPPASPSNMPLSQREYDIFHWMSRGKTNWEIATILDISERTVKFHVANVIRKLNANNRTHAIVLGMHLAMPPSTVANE

What is called IC50 is the point on the concentration scale where inhibition reaches its midpoint. In the case of `O=C(CCCOc1ccc(Cl)cc1)NC1CCOC1=O` (stereo not shown) [CL, chlorolactone], the IC50 amounted to 295 nM in assay [1] and 377 nM on CviR [2] (constant 500 nM C6-HSL, read-out: IC50 for inhibition of vioA-gfp expression). Also, at CviR [3] (500 nM loaded CviR, competing ligand 0-10 μM), the “ligand exchange on loaded CviR, effect on DNA binding” value was “DNA binding decreased in a dose dependent manner”. In addition, at CviR [3], the “DNA binding of ligand-loaded CviR to vioA promoter” value is on record as “no ability to bind DNA”.

For `O=C(CCCOc1ccc(Cl)cc1)NC1CCSC1=O` (stereo not shown) [CTL, Chloro-thiolactone], the IC50 came to 723 nM in assay [1] and 1100 nM on CviR [2]. Moreover, the “DNA binding of ligand-loaded CviR to vioA promoter” value on CviR [3] is “no ability to bind DNA”.
